Results: US12221447B2, “Methods and compositions for drugs to treat ophthalmic diseases” (Duke University, priority 2018, dated 2025)

Legend:
[1] = biological target: T1, CaMKK2 auto-phosphorylation (Homo sapiens, UniProt Q96RR4); assay: HEK293 cells, ionomycin stimulation, Western blot for phospho-CaMKK2; assay type: cell-based; settings: 10 μM; for inhibition of CaMKK2 auto-phosphorylation (densitometry): 2 hours pre-treatment, ionomycin 0.5 μg/mL 15 minutes; for inhibition of CaMKK2 auto-phosphorylation compared to STO-609: versus STO-609 10 μM
T1 construct: endogenous in cells; host or cells: HEK293
T1 sequence (Q96RR4 whole entry): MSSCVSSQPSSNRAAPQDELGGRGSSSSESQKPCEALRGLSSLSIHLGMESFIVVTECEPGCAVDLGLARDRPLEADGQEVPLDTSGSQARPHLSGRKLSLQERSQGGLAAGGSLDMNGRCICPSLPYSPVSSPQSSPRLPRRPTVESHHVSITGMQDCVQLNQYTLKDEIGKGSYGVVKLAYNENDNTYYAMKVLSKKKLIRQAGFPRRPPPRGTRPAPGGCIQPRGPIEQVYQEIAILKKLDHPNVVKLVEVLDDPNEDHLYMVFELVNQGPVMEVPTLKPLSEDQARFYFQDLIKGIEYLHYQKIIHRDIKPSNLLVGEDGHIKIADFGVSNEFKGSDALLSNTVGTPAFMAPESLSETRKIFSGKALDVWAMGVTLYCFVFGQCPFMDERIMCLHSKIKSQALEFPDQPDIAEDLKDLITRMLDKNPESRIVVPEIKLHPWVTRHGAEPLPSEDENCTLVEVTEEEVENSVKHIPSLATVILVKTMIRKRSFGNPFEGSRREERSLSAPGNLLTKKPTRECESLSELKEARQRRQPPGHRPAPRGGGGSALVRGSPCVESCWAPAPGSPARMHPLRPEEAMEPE
Description: (§1) Preliminary screening of Compounds EY301-EY305 was performed in vitro in HEK293 cells (all tested at 10 μM). In brief, HEK293 cells were cultured to sub confluence in […] complete media and 1% fetal bovine serum (FBS), incubated at 37° C. in 5% CO2. Cultured cells were then switched to serum-free media overnight prior to initiation of experiments. […] Cells were then stimulated with the calcium ionophore ionomycin (0.5 μg/mL) for 15 minutes, following which the cells were washed, harvested, and lysed for recovery of total protein using standard methods. Following standard protein gel electrophoresis, Western blot was then performed for either phospho-CaMKK2 (FIG. 4A) or phospho-AMPK (FIG. 4B) for each condition. Studies were performed in triplicate.

AMPK phosphorylation = assay: HEK293 cells, ionomycin stimulation, Western blot for phospho-AMPK; assay type: cell-based; settings: 10 μM; for inhibition of phospho-AMPK (densitometry): 2 hours pre-treatment, ionomycin 0.5 μg/mL 15 minutes; for inhibition of phospho-AMPK compared to STO-609: versus STO-609 10 μM
Description: as §1

OGVHD mouse model = assay: Mouse model of OGVHD, proof-of-concept with topical lead SMICs (Example 11); assay type: in vivo, mice; settings: for prevention of signs of OGVHD versus vehicle and prednisolone: 1.5 mg/mL topical daily for two weeks, p<0.05 vs vehicle or prednisolone
Description: Preclinical proof-of-concept studies in a mouse model of OGVHD were performed to assess the clinical efficacy of topical administration of the two most promising candidate SMICs identified in Examples 6 and 7, EY1006.A001.B001 and EY1001.A002.B001. […] Briefly, the OGVHD mouse model was initiated by isolation of bone marrow and splenic T cells from 2-3-month old mice C57BL/6J donor mice, and transplantation of isolated bone marrow and T cells to recipient 2-3-month old BALB/c mice, following ablation of recipient bone marrow. Recipient BALB/c mice were then allowed to convalesce for approximately 14 days before initiation of further experimental procedures.
OGVHD clinical findings include lid margin edema, lid crusting, tear film disruption, conjunctival chemosis, and keratopathy. These findings were clinically graded following one week and two weeks of treatment using a quantitative scoring system adapted from previously published studies (33, 34). […] By contrast, vehicle control-treated eyes had lid margin swelling and scarring with lash and periocular fur loss, eyelid crusting, chemosis, abnormal tear film, and keratopathy. […] For this scoring system and experiment Mild disease was score 0-5, moderate disease was score 6-10 and severe disease was score >10.

wild-type BALB/c mice = assay: NonGLP toxicology, in vivo tolerability of topically administered SMICs; settings: topical 1.5 mg/mL twice daily for 14 days
Description: NonGLP toxicology studies of locally administered candidate SMICs EY1006.A001.B001 and EY1001.A002.B001 was assessed in 2-3-month old wild-type BALB/c mice. assessing local toxicity by clinical assessment and by histopathology. Both compounds were topically administered at 1.5 mg/mL twice daily for 14 days.

[2] = with sonication; cited from earlier work
[3] = biological target: T2, aryl hydrocarbon receptors (Homo sapiens, UniProt P35869); settings: suspected off-target effect; cited from earlier work
T2 sequence (P35869 11-848): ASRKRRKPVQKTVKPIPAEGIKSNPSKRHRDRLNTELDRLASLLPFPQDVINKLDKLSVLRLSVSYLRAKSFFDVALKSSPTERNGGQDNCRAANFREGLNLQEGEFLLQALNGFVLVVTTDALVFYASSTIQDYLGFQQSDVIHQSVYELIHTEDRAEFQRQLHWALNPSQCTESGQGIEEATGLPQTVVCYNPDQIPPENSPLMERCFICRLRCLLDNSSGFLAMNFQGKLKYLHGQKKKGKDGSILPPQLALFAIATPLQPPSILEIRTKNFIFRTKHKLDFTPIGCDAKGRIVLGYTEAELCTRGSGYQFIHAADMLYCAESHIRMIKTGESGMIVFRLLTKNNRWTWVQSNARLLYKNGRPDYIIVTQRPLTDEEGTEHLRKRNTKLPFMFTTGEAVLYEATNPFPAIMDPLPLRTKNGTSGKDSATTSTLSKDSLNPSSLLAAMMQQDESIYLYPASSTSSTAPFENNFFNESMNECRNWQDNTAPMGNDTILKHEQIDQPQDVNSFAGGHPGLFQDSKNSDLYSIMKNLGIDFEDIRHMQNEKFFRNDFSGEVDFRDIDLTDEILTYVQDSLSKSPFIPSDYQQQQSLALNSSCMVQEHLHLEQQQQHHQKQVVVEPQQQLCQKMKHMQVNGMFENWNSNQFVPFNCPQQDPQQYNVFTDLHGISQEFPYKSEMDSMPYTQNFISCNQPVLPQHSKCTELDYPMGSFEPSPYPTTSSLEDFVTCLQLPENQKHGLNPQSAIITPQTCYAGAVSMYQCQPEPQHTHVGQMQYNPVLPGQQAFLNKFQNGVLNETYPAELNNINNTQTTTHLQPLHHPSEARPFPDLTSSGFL

experimental OGVHD = tested on: experimental OGVHD
Text: Ocular graft versus host disease (OGVHD), a disease in which T cells and macrophages are known to play key pathogenic roles, represents a model ocular inflammatory disease since A) it is known to share overlapping pathologic and clinical features with other, more common ocular inflammatory diseases (i.e. aqueous tear deficiency, meibomian gland dysfunction, uveitic disease, others); and B) the at-risk population is well defined since it occurs in individuals undergoing allogeneic bone marrow transplant for hematologic malignancies, autoimmune diseases, and other disorders. As such, experimental models of OGVHD represent attractive systems in which to study the therapeutic potential of targeting and inhibiting CaMKK2 for ophthalmic diseases. […] In brief, 2-3-month old mice of C57BL/6 and BALB/c strains are used for this model. C57BL/6 mice are sacrificed, following which RPMI-1640 medium is flushed in the diaphyseal channel of both recovered tibias and femurs. […]
Following BMT+T cell transfer, recipient BALB/c mice were allowed to convalesce for 14 days prior to initiation of experimental procedures. […] At the conclusion of the treatment period, eyes were then graded (in masked fashion) for signs of OGVHD and scored according to a modified clinical grading system (33, 34). […]

[4] = in vivo; cited from earlier work

Compound	inhibition of CaMKK2 auto-phosphorylation (densitometry) [1]	inhibition of CaMKK2 auto-phosphorylation compared to STO-609 [1]	inhibition of phospho-AMPK (densitometry) (AMPK phosphorylation)	inhibition of phospho-AMPK compared to STO-609 (AMPK phosphorylation)	prevention of signs of OGVHD versus vehicle and prednisolone (OGVHD mouse model)	further results
O=C(O)c1ccc2c(c1)[nH]c(=O)n1c3ccccc3nc21 [Compound 1]	robust inhibition	more effective as compared to STO-609	–	–	–	–
O=C(O)c1ccc2c(c1)n(CCF)c(=O)n1c3ccccc3nc21 [Compound 7]	–	–	–	–	superior to vehicle and prednisolone	severity of clinical OGVHD findings (OGVHD mouse model; 1.5 mg/mL topical daily, from day 14 post-BMT for two weeks, n=5): reduced severity of clinical OGVHD findings with efficacy similar to STO-609; systemic toxicity (wild-type BALB/c mice): no evidence of failure to thrive or mortality
O=C(O)c1ccc2c3c1cccc3c(=O)n1c3ccccc3nc21 [STO-609, 7-oxo-7H-benzimidazo[2,1-a]benz[de]isoquinoline-3-carboxylic acid]	–	–	–	–	superior to vehicle and prednisolone	maximum concentration in DMSO [2]: 10 mM; off-target effect on aryl hydrocarbon receptors [3]: activation of aryl hydrocarbon receptors; severity of OGVHD, median score (experimental OGVHD; STO-609 1.5 mg/mL local ocular, daily for 2 weeks from day 14 post-BMT, vehicle median score 17): 5; reduction in OGVHD score (experimental OGVHD; stated as demonstrated and established for STO-609): 50%; oral bioavailability [4]: poor oral bioavailability

Second part, led by results:

inhibition of CaMKK2 auto-phosphorylation (densitometry) [1]	inhibition of CaMKK2 auto-phosphorylation compared to STO-609 [1]	Compound	inhibition of phospho-AMPK (densitometry) (AMPK phosphorylation)	inhibition of phospho-AMPK compared to STO-609 (AMPK phosphorylation)	prevention of signs of OGVHD versus vehicle and prednisolone (OGVHD mouse model)	further results
robust inhibition	–	Cn1c(=O)n2c3ccccc3nc2c2ccc(C(=O)O)cc21 [Compound 3]	partial inhibition	comparable to STO-609	–	–
robust inhibition	more effective as compared to STO-609	CCn1c(=O)n2c3ccccc3nc2c2ccc(C(=O)O)cc21 [Compound 4]	partial inhibition	comparable to STO-609	–	–
robust inhibition	–	CC(C)Cn1c(=O)n2c3ccccc3nc2c2ccc(C(=O)O)cc21 [Compound 5]	partial inhibition	comparable to STO-609	–	–
